Source: patent US7759397B2, “6-amino(aza)indane compounds suitable for treating disorders that respond to modulation of the dopamine D3 receptor” (Abbott GmbH & Co. KG, priority 2004, dated 2010)
pKi: −log10 of the molar value.

Experiments:
[1] = target: T1, human dopamine D3 receptors (Homo sapiens, UniProt P35462); assay: Dopamine D3 receptor binding, displacement of [125I]-iodosulpride; details: ratio of receptor binding constants D2 over D3
T1 construct: expressed in transfected cells
Procedure: (§1) The substance to be tested was either dissolved in methanol/Chremophor® (BASF-AG) or in dimethyl sulfoxide and then diluted with water to the desired concentration.
(§2) Each assay mixture was run in triplicate.
The incubation buffer contained 50 mM tris, 120 mM NaCl, 5 mM KCl, 2 mM CaCl2, 2 mM MgCl2 and 0.1% bovine serum albumin, 10 μM […] and 0.1% ascorbic acid (prepared fresh daily). The buffer was adjusted to pH 7.4 with HCl. Dopamine D2L receptor:
(§3) After having been incubated at 25° C. for 60 minutes, the assay mixtures were filtered through a Whatman GF/B glass fiber filter under vacuum using a cell collecting device. The filters were transferred to scintillation viols using a filter transfer system. After 4 ml of Ultima Gold® (Packard) have been added, the samples were shaken for one hour and the radioactivity was then counted in a Beta-Counter (Packard, Tricarb 2000 or 2200CA). The cpm values were converted into dpm using a standard quench series and the program belonging to the instrument.
(§4) The inhibition curves were analyzed by means of iterative nonlinear regression analysis using the Statistical Analysis System (SAS) which is similar to the “LIGAND” program described by Munson and Rodbard.

[2] = target: T1, human dopamine D3 receptors; assay: as above; details: membranes of HEK-293 cells stably expressing human D3; 0.1 nM [125I]-iodosulpride; 25° C., 60 minutes; read-out: Ki(D3)* receptor binding constant
[3] = target: T2, human dopamine D2L receptors (long isoform) (Homo sapiens, UniProt P14416); assay: Dopamine D2L receptor binding, displacement of [125I] iodospiperone; details: membranes of HEK-293 cells stably expressing human D2L; 0.01 nM [125I] iodospiperone; 25° C., 60 minutes; read-out: Ki(D2)* receptor binding constant
T2 construct: expressed in transfected cells
Procedure: as §1, §2
The incubation buffer contained 50 mM tris, 120 mM NaCl, 5 mM KCl, 2 mM CaCl2, 2 mM MgCl2 and 0.1% bovine serum albumin. The buffer was adjusted to pH 7.4 with HCl.
as §3, §4

T2 sequence (P14416 whole entry, canonical isoform): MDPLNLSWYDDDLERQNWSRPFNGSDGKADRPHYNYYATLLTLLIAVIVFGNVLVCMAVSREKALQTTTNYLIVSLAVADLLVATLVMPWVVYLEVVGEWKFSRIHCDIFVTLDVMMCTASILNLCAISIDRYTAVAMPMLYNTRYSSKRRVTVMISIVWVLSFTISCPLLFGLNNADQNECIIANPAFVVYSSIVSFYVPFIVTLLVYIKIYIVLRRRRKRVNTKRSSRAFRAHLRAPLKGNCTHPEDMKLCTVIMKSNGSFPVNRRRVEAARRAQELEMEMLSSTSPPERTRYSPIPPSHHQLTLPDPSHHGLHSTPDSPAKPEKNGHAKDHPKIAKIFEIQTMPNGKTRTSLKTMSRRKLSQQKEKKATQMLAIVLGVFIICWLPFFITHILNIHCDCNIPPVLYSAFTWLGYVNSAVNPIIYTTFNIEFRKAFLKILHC
T1 sequence (P35462 whole entry): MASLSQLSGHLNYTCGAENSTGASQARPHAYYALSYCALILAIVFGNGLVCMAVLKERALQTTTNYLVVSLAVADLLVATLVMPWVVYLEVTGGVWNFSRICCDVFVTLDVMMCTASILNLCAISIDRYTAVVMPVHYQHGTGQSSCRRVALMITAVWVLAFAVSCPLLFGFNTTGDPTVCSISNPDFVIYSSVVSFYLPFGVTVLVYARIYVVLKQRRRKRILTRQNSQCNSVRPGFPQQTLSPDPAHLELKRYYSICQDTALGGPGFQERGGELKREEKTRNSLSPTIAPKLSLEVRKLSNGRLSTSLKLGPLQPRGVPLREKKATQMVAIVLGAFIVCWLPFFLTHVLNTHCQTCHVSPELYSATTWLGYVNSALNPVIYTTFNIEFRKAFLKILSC

Row | SMILES | Ki(D2)*/Ki(D3)* selectivity ratio [1] | pKi [2] | pKi [3]
1 | CCCN1CCC[C@@H]2c3cc(NS(=O)(=O)c4ccc(C(C)C)cc4)ccc3C[C@H]21 [4 (RR)-isomer] | 134 | 8.03 | 
2 | CCCN1CCC[C@H]2c3cc(NS(=O)(=O)c4ccc(C(C)C)cc4)ccc3C[C@@H]21 [4 (SS)-isomer] | 17 | 8.80 | 
3 | CCCN[C@@H]1Cc2ccc(NS(=O)(=O)c3ccc(C(C)C)cc3)cc2C1 [Example 1, 4-Isopropyl-N—((R)-2-propylamino-indan-5-yl)-benzenesulfonamide] | 64 | 8.40 | 6.59
4 | CCCN[C@H]1Cc2ccc(NS(=O)(=O)c3ccc(C(C)C)cc3)cc2C1.Cl [Example 2, 4-Isopropyl-N—((S)-2-propylamino-indan-5-yl)-benzenesulfonamide hydrochloride] | 20 | 8.17 | 6.88
5 | CCCN[C@H]1Cc2ccc(N(C)S(=O)(=O)c3ccc(C(C)C)cc3)cc2C1 [Example 3, 4-isopropyl-N-methyl-N—((S)-2-propylamino-indan-5-yl)-benzenesulfonamide] | 22 | 8.15 | 6.80
6 | CCCN(CCC)[C@@H]1Cc2ccc(NS(=O)(=O)c3ccc(C(C)C)cc3)cc2C1.Cl [Example 7, N—((R)-2-Dipropylamino-indan-5-yl)-4-isopropyl-benzenesulfonamide hydrochloride] | 195 | 9.59 | 7.29
